According to US20100298141A1, “SUBSTITUTED PYRIDINE N-OXIDE HERBICIDES” (E. I. DU PONT DE NEMOURS AND COMPANY, priority 2007, published 2010):

Tests used:
morningglory = assay: Test A pre-/postemergence greenhouse test; assay type: in vivo, Ipomoea spp.; details: for Morningglory plant response rating: 0 to 100 scale
Outline: (§1)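 Greenhouse herbicide screen, pre- and postemergence in parallel. Soil: loam plus sand. Formulation: non-phytotoxic solvent mix with surfactant. Postemergence stage: one to two leaves, 2–10 cm height. Evaluation: visual injury, compared with untreated controls, about 10 days after treatment.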

redroot pigweed = assay: Test A pre-/postemergence greenhouse test; assay type: in vivo, Amaranthus retroflexus; details: for Pigweed plant response rating: 0 to 100 scale
Outline: as §1

blackgrass = assay: Test C pre-/postemergence test; assay type: in vivo, Alopecurus myosuroides
Outline: (§2)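 Test chemicals were formulated with surfactant in a non-phytotoxic solvent and sprayed both on freshly planted seeds (preemergence) and on 1- to 4-leaf plants of 2–18 cm (postemergence). Flooded-paddy pots received compound directly into 3 cm of standing water, maintained for the test.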

downy brome = assay: Test C pre-/postemergence test; assay type: in vivo, Bromus tectorum
Outline: as §2

green foxtail = assay: Test C pre-/postemergence test; assay type: in vivo, Setaria viridis; details: Preemergence
Outline: as §2

wild oat = assay: Test C pre-/postemergence test; assay type: in vivo, Avena fatua; details: Preemergence
Outline: as §2

catchweed bedstraw = assay: Test C pre-/postemergence test; assay type: in vivo, Galium aparine; details: Preemergence
Outline: as §2

bermudagrass = assay: Test C pre-/postemergence test; assay type: in vivo, Cynodon dactylon
Outline: as §2

cocklebur = assay: Test C pre-/postemergence test; assay type: in vivo, Xanthium strumarium
Outline: as §2

woolly cupgrass = assay: Test C pre-/postemergence test; assay type: in vivo, Eriochloa villosa; details: Preemergence
Outline: as §2

kochia = assay: Test C pre-/postemergence test; assay type: in vivo, Kochia scoparia; details: Preemergence
Outline: as §2

lambsquarters = assay: Test C pre-/postemergence test; assay type: in vivo, Chenopodium album; details: Preemergence
Outline: as §2

yellow nutsedge = assay: Test C pre-/postemergence test; assay type: in vivo, Cyperus esculentus; details: Preemergence
Outline: as §2

soybean = assay: Test C pre-/postemergence test; assay type: in vivo, Glycine max; details: Preemergence
Outline: as §2

rice = assay: Test C flooded paddy test; assay type: in vivo, Oryza sativa; details: Flood
Outline: (§3)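 Flooded 3 cm over soil; compound into paddy water; depth kept constant. Greenhouse 13–15 d.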

duck salad = assay: Test C flooded paddy test; assay type: in vivo, Heteranthera limosa; details: Flood
Outline: as §3

[1] = Postemergence, 125 g ai/ha, 0 is no effect, 100 is complete control
[2] = Postemergence, 500 g ai/ha, 0 is no effect, 100 is complete control
[3] = Preemergence, 125 g ai/ha, 0 no effect, 100 complete control
[4] = Preemergence, 500 g ai/ha, 0 to 100 scale where 0 is no effect and 100 is complete control
[5] = 62 g ai/ha, Preemergence, scale 0 to 100
[6] = Preemergence, 31 g ai/ha, scale 0 to 100 (0 no effect, 100 complete control)
[7] = preemergence, 125 g ai/ha, scale 0 (no effect) to 100 (complete control)
[8] = 31 g ai/ha, scale 0 to 100 (0 no effect, 100 complete control)
[9] = 62 g ai/ha, scale 0 to 100, 0 no effect, 100 complete control, 13 to 15 days
[10] = 125 g ai/ha, scale 0 to 100, 0 no effect, 100 complete control, 13 to 15 days
[11] = 250 g ai/ha, scale 0 to 100 (0 no effect, 100 complete control)

## Cn1nc(C(F)(F)F)c(CS(=O)(=O)c2ccc(Cl)c[n+]2[O-])c1Cl [Compound 18]
morningglory; [1]
  Morningglory plant response rating: 0
morningglory; [2]
  Morningglory plant response rating: 20
morningglory; [3]
  Morningglory plant response rating: 0
morningglory; [4]
  Plant response rating, Morningglory: 20
Redroot pigweed; [1]
  Pigweed plant response rating: 0
Redroot pigweed; [2]
  Pigweed plant response rating: 60
Redroot pigweed; [3]
  Pigweed plant response rating: 90
Redroot pigweed; [4]
  Plant response rating, Pigweed: 100
blackgrass; [5]
  Blackgrass plant response rating: 0
blackgrass; [6]
  Plant response rating, Blackgrass: 0
blackgrass; Preemergence, 250 g ai/ha
  Plant response rating (0 to 100), Blackgrass: 98
blackgrass; [7]
  Blackgrass plant response rating: 98
Downy brome; [5]
  Bromegrass, Downy plant response rating: 0
Downy brome; [6]
  Plant response rating, Bromegrass, Downy: 0
Downy brome; Preemergence, 250 g ai/ha
  Plant response rating (0 to 100), Bromegrass, Downy: 0
Downy brome; [7]
  Bromegrass, Downy plant response rating: 0
Green foxtail; [8]
  Plant response rating, Foxtail, Green: 20
Green foxtail; 250 g ai/ha
  Plant response rating (0 to 100), Foxtail, Green: 100
Wild oat; 62 g ai/ha, scale 0 to 100
  Oat, Wild plant response rating: 0
Wild oat; [8]
  Plant response rating, Oat, Wild: 0
Catchweed bedstraw; 62 g ai/ha, scale 0 to 100
  Galium plant response rating: 0
Catchweed bedstraw; [8]
  Plant response rating, Galium: 0
Catchweed bedstraw; 250 g ai/ha
  Plant response rating (0 to 100), Galium: 90
bermudagrass; 62 g ai/ha, Preemergence, scale 0 to 100 (0 no effect, 100 complete control)
  Bermudagrass plant response rating: 100
bermudagrass; [6]
  Plant response rating, Bermudagrass: 90
bermudagrass; Preemergence, 250 g ai/ha
  Plant response rating (0 to 100), Bermudagrass: 100
bermudagrass; [7]
  Bermudagrass plant response rating: 100
cocklebur; [5]
  Cocklebur plant response rating: 0
cocklebur; [6]
  Plant response rating, Cocklebur: 0
cocklebur; Preemergence, 250 g ai/ha
  Plant response rating (0 to 100), Cocklebur: 0
cocklebur; [7]
  Cocklebur plant response rating: 0
Woolly cupgrass; 62 g ai/ha, scale 0 to 100
  Cupgrass, Woolly plant response rating: 80
Woolly cupgrass; [8]
  Plant response rating, Cupgrass, Woolly: 10
Woolly cupgrass; 250 g ai/ha
  Plant response rating (0 to 100), Cupgrass, Woolly: 100
kochia; 62 g ai/ha, scale 0 to 100
  Kochia plant response rating: 0
kochia; [8]
  Plant response rating, Kochia: 0
lambsquarters; 62 g ai/ha, scale 0 to 100
  Lambsquarters plant response rating: 0
lambsquarters; [8]
  Plant response rating, Lambsquarters: 0
Yellow nutsedge; 62 g ai/ha, scale 0 to 100
  Nutsedge, Yellow plant response rating: 0
Yellow nutsedge; [8]
  Plant response rating, Nutsedge, Yellow: 0
soybean; 62 g ai/ha, scale 0 to 100
  Soybean plant response rating: 0
soybean; [8]
  Plant response rating, Soybean: 0
rice; [8]
  Plant response rating, Rice: 30
rice; [9]
  Plant response rating, Rice: 40
rice; [10]
  Plant response rating, Rice: 80
rice; [11]
  Plant response rating, Rice: 80
Duck salad; [8]
  Plant response rating, Ducksalad: 0
Duck salad; [9]
  Plant response rating, Ducksalad: 0
Duck salad; [10]
  Plant response rating, Ducksalad: 80
Duck salad; [11]
  Plant response rating, Ducksalad: 80
